According to patent US20170247446A1, “TARGETING K-RAS-MEDIATED SIGNALING PATHWAYS AND MALIGNANCY BY ANTI-hLIF ANTIBODIES” (The Regents of the University of California, priority 2014, published 2017):

System: PANC2.03 subcutaneous tumors
Test: Drug sensitization assay, PANC2.03 subcutaneous tumors in nude mice
Type: in vivo
Protocol: FIG. 5. […] (B) 50,000 cells of PANC2.03 were subcutaneously injected into nude mice for the tumor initiation assay. The anti-LIF AB (clone D25.1.4) was given before the tumor inoculation at 10 mg/kg. The treatment was given three times a week. […] (C) In drug sensitization assay, 0.2×10^6 cells of PANC2.03 cells were first subcutaneously injected into nude mice. […] The mice were randomly separated into 4 different groups: control, Ab only, gemcitabine only, and combination. […] (D) Tumor volume changing curve in the PANC2.03 subcutaneous tumors with the treatment model of (C). […] Tumor proliferation rate=(Tumor vol on the later day−Tumor vol on the initial day)/Tumor vol on the initial day*100. […] The response to gemcitabine was analyzed in pancreatic cancer cells. […] The effects of LIF-neutralizing antibody were also tested in mouse models. […] In a drug sensitization assay, PANC2.03 cells were subcutaneously injected into nude mice to form tumors, then the mice were treated with anti-LIF antibody, gemcitabine, or a combination of anti-LIF antibody and gemcitabine.

Compound: Nc1ccn([C@@H]2O[C@H](CO)[C@@H](O)C2(F)F)c(=O)n1 [gemcitabine]
- complete regressions of tumors (0.2×10^6 PANC2.03 cells s.c., tumors formed within 14 days post-inoculation, then treatment, FIG. 5C): did not lead to the tumor regressions
- tumor proliferation rate ((Tumor vol on the later day−Tumor vol on the initial day)/Tumor vol on the initial day*100, FIG. 5E): still had a positive growth rate
- fold change on tumor volumes (FIG. 5F): still had a positive growth rate
